Ten compounds from ChEMBL document CHEMBL1201862, “PubChem BioAssay data set” (2004) can be followed below.

The structures appear in SMILES notation. Active and inactive are the calls of the source.

In test [1] the target is T1, Eukaryotic translation initiation factor 2-alpha kinase 3 (Homo sapiens, UniProt Q9NZJ5).
T1 sequence (Q9NZJ5 whole entry): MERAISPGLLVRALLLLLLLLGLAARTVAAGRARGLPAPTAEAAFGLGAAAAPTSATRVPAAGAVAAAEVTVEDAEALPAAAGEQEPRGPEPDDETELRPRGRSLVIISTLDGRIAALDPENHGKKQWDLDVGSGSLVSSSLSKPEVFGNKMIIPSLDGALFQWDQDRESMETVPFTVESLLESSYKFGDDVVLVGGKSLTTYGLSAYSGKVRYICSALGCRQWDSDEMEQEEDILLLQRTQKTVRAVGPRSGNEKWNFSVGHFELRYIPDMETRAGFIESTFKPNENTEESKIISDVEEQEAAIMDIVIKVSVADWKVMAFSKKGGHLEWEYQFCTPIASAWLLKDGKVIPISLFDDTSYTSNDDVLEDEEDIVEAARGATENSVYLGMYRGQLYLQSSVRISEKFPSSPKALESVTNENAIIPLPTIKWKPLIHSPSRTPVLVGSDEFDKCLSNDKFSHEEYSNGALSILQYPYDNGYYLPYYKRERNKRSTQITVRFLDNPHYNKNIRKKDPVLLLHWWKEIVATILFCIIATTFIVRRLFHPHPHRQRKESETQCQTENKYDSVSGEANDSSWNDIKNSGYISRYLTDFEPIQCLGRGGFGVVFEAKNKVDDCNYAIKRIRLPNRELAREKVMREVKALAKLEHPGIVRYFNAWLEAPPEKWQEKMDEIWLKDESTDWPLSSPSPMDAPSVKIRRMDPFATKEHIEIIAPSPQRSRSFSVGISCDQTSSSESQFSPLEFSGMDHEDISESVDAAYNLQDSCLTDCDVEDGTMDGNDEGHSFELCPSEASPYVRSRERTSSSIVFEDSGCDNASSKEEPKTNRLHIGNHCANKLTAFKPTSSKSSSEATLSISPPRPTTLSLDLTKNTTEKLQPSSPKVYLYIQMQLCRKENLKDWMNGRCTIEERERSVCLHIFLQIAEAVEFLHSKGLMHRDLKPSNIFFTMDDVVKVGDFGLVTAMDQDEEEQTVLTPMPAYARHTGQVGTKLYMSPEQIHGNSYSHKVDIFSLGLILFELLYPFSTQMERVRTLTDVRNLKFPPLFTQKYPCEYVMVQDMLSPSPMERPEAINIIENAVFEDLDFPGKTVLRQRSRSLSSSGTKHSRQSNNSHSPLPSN
The experiment in a line: Counterscreen assay for PERK inhibitors: Dose response cell-based high throughput screening assay to measure inhibition of PERK at 6 hours. [Related pubchem assays: 1522, 1416 ]. Type of test: functional. A general note: The purpose of a counterscreen is to sort out artefacts and off-target activity.

The target of test [2] is T1, Eukaryotic translation initiation factor 2-alpha kinase 3. Nature of the test: Dose response cell-based high-throughput screening assay to measure PERK inhibition. [Related pubchem assays: 1416 ]. The class given is functional.
Test [3] has as its target Neurotensin receptor type 1 (Homo sapiens, UniProt P30989). Type of test: functional.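 Further: Image-based confirmatory dose-response assay measuring agonist activity at NTR1; NTR1-expressing U2OS osteosarcoma cells imaged for beta-arrestin GFP spot formation; agonist potency where compounds increase beta-arrestin recruitment.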
Test [4] deals with C-C chemokine receptor type 6 (Homo sapiens, UniProt P51684). Nature of the test: CCR6 receptor antagonists, dose response, cell-based, luminescent beta-arrestin readout (AID 504728). The class given is functional.
For the next test, the target named is Nonstructural protein 1 (Influenza A virus, UniProt Q194T2). Type of test: functional, Influenza A virus (A/California/07/2009(H1N1)).
For a further test, the target named is Genome polyprotein (dengue virus type 2, UniProt P29990). Nature of the test: Dengue-2 NS5 methyltransferase inhibitors, primary screen, biochemical, confirmation dose response (AID 588689). Type of test: functional.
Test [5] concerns Vero. Nature of the test: Vero cell cytotoxicity, cytotoxicity control for flavivirus capping enzyme inhibitors (AID 588742). The class given is functional. The conditions noted are these: Chlorocebus sabaeus.
The target in a further test is Beta-galactosidase (Escherichia coli, UniProt Q8VNN2). Nature of the test: beta-galactosidase enzyme inhibitors and activators, dose response, artefact control for CCR6 antagonist project, biochemical, E. coli enzyme, set 3 (AID 504712). Type of test: functional.
A further test can be described thus: cells. Type of test: functional.
In the next test the test system is Streptococcus. The experiment in a line: Group A Streptococcus viability loss, dose response, counter-screen for streptokinase expression inhibitor project, luminescence, BacTiterGlo (AID 1915).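 Further: potency for reduction of bacterial viability or growth.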 The class given is functional, organism-based. The conditions noted are these: read-out: EC50.
Test [6] can be described thus: HepG2 cell cytotoxicity, dose response, cytotoxicity control for non-replicating M. tuberculosis project (AID 489018). Type of test: functional. Particulars: Mycobacterium tuberculosis.
The nature of test [7]: Vero E6 cell cytotoxicity, dose response, cytotoxicity control for non-replicating M. tuberculosis project, secondary assay (AID 492998). Particulars: Vero C1008. Type of test: functional, VeroE6.
Test [8] can be described thus: THP-1 cell cytotoxicity, dose response, cytotoxicity control for non-replicating M. tuberculosis project (AID 489025). The class given is functional.
Test [9] has as its system Streptococcus sp. 'group A'. Nature of the test: growth inhibition of control SK(-) GAS strain, dose response, counter-screen for streptokinase expression inhibitor project, luminescence, kanamycin, BacTiterGlo, confirmation (AID 1900). The class given is functional, organism-based.
The target of test [10] is Heat shock protein HSP 90-alpha (Homo sapiens, UniProt P07900). The class given is functional, organism-based.
Test [11] deals with Vero. The experiment in a line: cells. The conditions noted are these: Chlorocebus sabaeus. Type of test: functional.
The target of the next test is Bcl-2-like protein 10 (Homo sapiens, UniProt Q9HD36). Nature of the test: displacers of TR3 peptide from Bcl-B, primary screen, selectivity assay for Bfl-1 inhibitor project, biochemical, fluorescence polarization, FITC-TR3 peptide (AID 748). (In general: In fluorescence polarisation assays a small probe gives low polarisation when free and higher when bound to something large.);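 further: fluorescence polarization from a fluorescein-labelled TR3 peptide binding purified Bcl-B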

In test [12] the target is Melanin-concentrating hormone receptor 1 (Homo sapiens, UniProt Q99705). The experiment in a line: Late-stage fluorescence-based counterscreen for antagonists of the G-protein coupled receptor 7 (GPR7): cell-based dose response assay to identify antagonists of the melanin-concentrating hormone receptor 1 (MCHR1). [Related pubchem assays (depositor defined):AID1861, AID1880, AID1952, AID2148, AID2251, AID2257, AID485339]. Type of test: functional.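 Further: stimulated with 30 nM MCH peptide agonist.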

A further test concerns the target T2, Hexokinase HKDC1 (Homo sapiens, UniProt Q2TB90).
T2 sequence (Q2TB90 whole entry): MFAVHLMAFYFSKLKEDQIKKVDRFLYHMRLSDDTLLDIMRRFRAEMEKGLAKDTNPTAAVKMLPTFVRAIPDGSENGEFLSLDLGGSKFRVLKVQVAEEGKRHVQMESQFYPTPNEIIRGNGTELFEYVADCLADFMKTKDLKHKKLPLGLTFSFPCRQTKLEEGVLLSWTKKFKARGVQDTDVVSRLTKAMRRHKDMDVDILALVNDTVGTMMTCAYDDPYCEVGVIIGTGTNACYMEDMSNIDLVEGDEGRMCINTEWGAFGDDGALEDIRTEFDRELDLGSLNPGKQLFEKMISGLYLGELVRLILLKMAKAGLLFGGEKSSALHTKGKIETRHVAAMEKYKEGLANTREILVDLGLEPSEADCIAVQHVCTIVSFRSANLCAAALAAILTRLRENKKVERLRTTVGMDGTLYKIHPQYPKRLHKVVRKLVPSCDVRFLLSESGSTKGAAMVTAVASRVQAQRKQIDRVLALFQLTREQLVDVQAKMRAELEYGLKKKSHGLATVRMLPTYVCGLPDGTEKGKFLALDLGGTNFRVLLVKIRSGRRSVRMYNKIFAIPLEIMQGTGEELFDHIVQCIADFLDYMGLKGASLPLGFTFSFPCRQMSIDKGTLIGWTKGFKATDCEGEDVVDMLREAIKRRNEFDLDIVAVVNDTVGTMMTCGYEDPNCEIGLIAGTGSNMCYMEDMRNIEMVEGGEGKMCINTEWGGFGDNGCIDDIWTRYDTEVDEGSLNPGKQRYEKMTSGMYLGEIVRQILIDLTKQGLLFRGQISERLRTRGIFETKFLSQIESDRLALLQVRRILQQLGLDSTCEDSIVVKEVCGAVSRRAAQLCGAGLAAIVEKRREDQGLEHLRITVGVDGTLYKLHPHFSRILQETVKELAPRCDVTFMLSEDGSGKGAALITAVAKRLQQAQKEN
Nature of the test: HKDC1 hexokinase inhibitors, dose response, biochemical, W721R variant (AID 504729). Type of test: functional.

Test [13] is described as follows: Luminescence Cell-Based Dose Confirmation HTS to Identify Inhibitors of Platelet Dense Granule Release. [Related pubchem assays: 1663 (Primary HTS), 1678 (Summary of Project)]. The class given is functional.
Test [14] has as its target Luciferin 4-monooxygenase (Photinus pyralis, UniProt P08659). Nature of the test: firefly luciferase enzyme inhibitors, dose response, biochemical, luminescence (AID 1891).
The target in test [15] is T3, Microphthalmia-associated transcription factor (Homo sapiens, UniProt O75030).
T3 sequence (O75030 whole entry): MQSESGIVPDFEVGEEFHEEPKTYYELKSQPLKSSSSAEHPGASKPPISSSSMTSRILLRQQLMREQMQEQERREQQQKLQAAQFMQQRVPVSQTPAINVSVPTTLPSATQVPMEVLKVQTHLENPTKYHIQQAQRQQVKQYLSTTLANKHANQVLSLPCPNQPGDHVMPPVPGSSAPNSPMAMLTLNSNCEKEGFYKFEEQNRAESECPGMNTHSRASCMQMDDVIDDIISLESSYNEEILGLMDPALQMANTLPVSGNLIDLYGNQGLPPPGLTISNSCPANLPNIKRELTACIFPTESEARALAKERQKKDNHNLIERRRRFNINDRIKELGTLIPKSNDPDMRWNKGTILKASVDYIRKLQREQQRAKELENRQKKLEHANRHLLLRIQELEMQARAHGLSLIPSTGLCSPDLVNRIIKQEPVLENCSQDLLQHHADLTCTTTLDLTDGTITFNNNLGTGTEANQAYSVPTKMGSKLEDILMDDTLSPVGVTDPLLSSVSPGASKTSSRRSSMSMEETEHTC
The experiment in a line: TRPM1 promoter luciferase signal decrease, dose response, MITF inhibitor project, cell-based, SK-MEL-5, cherry-picked, set 3 (AID 493073).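 Further: SK-MEL-5 melanoma cells with luciferase driven by the MITF target TRPM1 promoter.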 The class given is functional.

The target in a further test is T4, Streptokinase A (Streptococcus pyogenes serotype M1, UniProt P10520).
T4 sequence (P10520 whole entry): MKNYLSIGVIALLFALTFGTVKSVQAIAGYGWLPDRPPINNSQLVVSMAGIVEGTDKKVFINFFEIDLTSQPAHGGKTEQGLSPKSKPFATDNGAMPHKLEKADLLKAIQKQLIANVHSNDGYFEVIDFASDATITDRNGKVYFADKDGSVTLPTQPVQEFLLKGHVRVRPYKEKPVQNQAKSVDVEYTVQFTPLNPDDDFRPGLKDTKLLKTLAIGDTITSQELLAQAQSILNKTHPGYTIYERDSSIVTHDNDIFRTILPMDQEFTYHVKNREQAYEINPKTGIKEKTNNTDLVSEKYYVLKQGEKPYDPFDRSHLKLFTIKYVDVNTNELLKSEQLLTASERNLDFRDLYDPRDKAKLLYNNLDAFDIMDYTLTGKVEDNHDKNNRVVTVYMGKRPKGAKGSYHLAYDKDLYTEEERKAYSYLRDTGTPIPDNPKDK
Nature of the test: S. pyogenes streptokinase expression inhibitors, potency, dose response, plasminogen activation absorbance, OD405 (AID 1914).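 Further: secreted streptokinase activity via plasminogen activation per viability signal from cell pellet.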 Type of test: functional, Streptococcus pyogenes M1 GAS.

Test [16] in a line: THP-1 cell cytotoxicity, dose response, cytotoxicity control for Vif-APOBEC3G degradation inhibitor project, THP-1 cells (AID 1117359). The class given is functional. Particulars: Human immunodeficiency virus 1, THP-1.

Sequence of Beta-galactosidase (Q8VNN2 whole entry): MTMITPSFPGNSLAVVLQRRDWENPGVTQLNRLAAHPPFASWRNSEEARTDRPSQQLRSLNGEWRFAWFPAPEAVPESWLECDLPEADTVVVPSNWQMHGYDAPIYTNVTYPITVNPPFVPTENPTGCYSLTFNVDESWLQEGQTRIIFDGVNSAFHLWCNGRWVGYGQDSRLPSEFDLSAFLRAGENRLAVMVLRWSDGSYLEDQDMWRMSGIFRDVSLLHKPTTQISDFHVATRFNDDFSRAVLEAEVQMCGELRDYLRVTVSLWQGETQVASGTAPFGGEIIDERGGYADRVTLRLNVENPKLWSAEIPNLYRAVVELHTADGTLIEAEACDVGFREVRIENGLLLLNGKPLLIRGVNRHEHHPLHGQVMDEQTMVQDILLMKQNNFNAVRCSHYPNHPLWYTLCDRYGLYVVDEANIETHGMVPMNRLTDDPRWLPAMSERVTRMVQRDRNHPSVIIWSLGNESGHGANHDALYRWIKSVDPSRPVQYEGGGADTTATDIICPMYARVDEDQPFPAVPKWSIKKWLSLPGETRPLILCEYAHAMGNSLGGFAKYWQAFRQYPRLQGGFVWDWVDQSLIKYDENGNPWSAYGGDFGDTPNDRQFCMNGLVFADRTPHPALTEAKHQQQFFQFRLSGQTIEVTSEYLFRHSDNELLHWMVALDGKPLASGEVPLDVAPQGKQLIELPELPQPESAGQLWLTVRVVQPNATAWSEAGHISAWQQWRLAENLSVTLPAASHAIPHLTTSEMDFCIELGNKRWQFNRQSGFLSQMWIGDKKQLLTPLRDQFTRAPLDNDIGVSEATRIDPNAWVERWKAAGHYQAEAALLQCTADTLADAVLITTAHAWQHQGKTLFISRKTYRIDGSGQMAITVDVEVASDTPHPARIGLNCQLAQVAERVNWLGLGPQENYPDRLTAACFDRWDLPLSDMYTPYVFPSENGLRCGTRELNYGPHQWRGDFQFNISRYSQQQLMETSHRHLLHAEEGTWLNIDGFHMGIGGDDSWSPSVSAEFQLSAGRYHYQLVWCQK
Sequence of C-C chemokine receptor type 6 (P51684 whole entry): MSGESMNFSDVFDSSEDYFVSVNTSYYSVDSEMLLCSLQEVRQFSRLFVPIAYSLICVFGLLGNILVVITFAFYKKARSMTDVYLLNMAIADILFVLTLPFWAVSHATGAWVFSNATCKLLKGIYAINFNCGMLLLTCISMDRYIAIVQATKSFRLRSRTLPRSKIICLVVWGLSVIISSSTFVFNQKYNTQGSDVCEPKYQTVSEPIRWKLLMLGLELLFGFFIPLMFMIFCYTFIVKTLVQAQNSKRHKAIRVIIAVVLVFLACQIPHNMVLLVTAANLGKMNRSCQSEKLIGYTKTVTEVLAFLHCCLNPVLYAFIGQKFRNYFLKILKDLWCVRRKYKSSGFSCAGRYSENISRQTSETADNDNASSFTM
Sequence of Neurotensin receptor type 1 (P30989 whole entry): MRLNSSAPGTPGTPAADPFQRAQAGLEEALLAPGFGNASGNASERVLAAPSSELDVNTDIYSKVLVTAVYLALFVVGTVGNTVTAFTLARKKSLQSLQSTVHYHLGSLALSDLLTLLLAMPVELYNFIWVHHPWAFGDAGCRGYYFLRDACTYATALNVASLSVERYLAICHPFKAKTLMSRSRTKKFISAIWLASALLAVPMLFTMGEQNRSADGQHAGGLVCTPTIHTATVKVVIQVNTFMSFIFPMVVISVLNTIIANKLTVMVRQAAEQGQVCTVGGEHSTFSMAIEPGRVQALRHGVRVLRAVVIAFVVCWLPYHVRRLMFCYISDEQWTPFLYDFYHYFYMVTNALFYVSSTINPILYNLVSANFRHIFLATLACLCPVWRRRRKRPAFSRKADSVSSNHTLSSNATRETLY
Sequence of Luciferin 4-monooxygenase (P08659 whole entry): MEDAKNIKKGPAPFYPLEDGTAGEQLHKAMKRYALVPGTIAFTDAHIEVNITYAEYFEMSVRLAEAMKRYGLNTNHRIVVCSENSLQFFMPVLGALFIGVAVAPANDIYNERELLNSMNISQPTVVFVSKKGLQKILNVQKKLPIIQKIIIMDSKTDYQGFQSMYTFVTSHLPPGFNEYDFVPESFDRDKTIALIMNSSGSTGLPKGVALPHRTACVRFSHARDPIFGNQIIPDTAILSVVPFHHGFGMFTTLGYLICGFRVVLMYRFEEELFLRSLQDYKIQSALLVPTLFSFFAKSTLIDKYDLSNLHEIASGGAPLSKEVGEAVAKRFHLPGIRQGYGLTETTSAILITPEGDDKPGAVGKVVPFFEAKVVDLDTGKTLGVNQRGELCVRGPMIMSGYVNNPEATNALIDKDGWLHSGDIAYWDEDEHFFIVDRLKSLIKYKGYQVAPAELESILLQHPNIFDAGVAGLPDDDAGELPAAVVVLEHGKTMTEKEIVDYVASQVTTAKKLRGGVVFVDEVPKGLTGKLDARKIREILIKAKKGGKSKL
Sequence of Bcl-2-like protein 10 (Q9HD36 whole entry): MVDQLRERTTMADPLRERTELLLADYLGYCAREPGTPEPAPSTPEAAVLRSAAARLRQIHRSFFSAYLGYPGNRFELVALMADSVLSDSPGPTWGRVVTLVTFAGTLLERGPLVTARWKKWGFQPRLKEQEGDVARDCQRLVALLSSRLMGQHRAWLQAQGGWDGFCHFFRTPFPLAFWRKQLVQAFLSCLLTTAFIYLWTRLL
Sequence of Nonstructural protein 1 (Q194T2 whole entry): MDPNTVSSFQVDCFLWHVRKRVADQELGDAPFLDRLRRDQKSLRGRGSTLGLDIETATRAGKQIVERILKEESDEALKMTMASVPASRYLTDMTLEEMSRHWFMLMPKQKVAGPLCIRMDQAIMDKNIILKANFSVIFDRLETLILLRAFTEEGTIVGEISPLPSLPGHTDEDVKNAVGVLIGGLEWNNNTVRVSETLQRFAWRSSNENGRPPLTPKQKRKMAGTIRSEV
Sequence of Melanin-concentrating hormone receptor 1 (Q99705 whole entry): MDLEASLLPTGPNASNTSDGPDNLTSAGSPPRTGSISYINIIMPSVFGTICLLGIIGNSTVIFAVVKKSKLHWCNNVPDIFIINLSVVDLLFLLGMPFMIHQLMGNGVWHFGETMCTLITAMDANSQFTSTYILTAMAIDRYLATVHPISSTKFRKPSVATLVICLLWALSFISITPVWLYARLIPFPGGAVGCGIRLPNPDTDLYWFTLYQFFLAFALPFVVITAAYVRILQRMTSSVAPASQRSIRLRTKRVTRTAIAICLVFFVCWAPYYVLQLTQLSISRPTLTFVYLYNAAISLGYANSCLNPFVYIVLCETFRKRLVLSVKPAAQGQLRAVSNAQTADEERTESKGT
Sequence of Genome polyprotein (P29990 2492-3391 limits assumed): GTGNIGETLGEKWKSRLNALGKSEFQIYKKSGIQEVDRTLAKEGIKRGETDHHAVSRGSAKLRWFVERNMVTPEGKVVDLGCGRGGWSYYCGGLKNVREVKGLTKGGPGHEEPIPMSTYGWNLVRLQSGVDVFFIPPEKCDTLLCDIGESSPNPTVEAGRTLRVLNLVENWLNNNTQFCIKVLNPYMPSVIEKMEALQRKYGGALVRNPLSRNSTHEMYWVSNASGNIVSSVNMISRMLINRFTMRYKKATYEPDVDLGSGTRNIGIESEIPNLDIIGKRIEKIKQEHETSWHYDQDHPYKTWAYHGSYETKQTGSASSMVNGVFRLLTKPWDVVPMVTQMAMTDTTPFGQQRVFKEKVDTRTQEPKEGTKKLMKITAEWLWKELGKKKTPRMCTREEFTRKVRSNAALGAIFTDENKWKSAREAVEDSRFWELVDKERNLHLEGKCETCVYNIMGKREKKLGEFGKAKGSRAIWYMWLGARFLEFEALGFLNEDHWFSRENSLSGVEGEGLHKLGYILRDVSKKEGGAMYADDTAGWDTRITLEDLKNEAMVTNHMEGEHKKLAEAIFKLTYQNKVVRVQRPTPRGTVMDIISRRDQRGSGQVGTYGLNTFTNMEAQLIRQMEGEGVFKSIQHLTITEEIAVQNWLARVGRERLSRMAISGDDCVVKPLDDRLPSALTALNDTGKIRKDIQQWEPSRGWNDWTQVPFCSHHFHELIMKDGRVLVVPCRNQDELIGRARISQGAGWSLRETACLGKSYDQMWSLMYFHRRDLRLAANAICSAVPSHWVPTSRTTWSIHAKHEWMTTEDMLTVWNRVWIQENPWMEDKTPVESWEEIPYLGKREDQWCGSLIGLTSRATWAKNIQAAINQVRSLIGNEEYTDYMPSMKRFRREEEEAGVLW

In the case of `Cc1csc2nc(CNC(=O)CCC(=O)O)cn12`, the EC50 in test [1] and in test [2] was > 55.7 µM (not active) throughout.

Take `CC(=O)n1cc(C(C[N+](=O)[O-])SCCN)c2ccccc21` (stereo unspecified): in test [3], the EC50 (as a rule, the concentration at which the effect is half-maximal) was 14.2 µM (active).

On to `Nc1c(S(=O)(=O)O)cc(NC(=O)c2ccccc2)c2c1C(=O)c1ccccc1C2=O`, for which the IC50 – broadly, the concentration needed to halve the response being measured – is 26.9 µM (inactive) in test [4], 13.3 µM (active) at Nonstructural protein 1, 34.3 µM (active) on Genome polyprotein and > 66.6 µM (inactive) on Beta-galactosidase. The CC50 (in general, the concentration at which the toxic effect on the cells reaches its halfway point) in the test with Vero [5] was > 40 µM (active).

With `O=c1c2cc(Cl)ccc2nc(-c2ccc(Cl)c(Cl)c2)n1O`, the IC50 in the test “cells” was 4.14 µM (active). Moreover, the EC50 is 0.949 µM (active) with Streptococcus and 0.402 µM (active) in test [9]. For the same compound, the results for the CC50 in test [6], in test [7] and in test [8] were > 20 µM (active), 10.9 µM (active) and 14.2 µM (active), respectively.

Take `COc1cccc(/C=C2/CCC(CN(C)C)C2=O)c1` (stereo unspecified): the figures for the IC50 (in test [4]; on Beta-galactosidase) were 32.3 µM (inactive) and > 66.6 µM (inactive), respectively. Moreover, the AC50 (commonly the concentration giving half of the maximal activity seen) in [10] was 4.55 µM (active). In the test with Vero [11], the CC50 was 22.4 µM (active).

Turning to `COc1ccc(N2C(=O)c3cccc4cccc(c34)C2=O)nn1`, the IC50 at Bcl-2-like protein 10 was > 50 µM (inactive).

Consider `COc1ccc(Oc2c(C=O)cnn(-c3ccc(C(C)C)cc3)c2=O)cc1`, for which the IC50 in [12] is 4.8 µM (active).

Consider `CCCCc1c(C)nc2c(OC)cccc2c1SCC(=O)O`, for which the EC50 in test [1] and in [2] was > 55.7 µM (not active) throughout.

As for `CC(C)c1nc2oc3c(NCC4CCCO4)ncnc3c2c2c1COC(C)(C)C2` (stereo unspecified), at Hexokinase HKDC1, the IC50 was 3.81 µM (active). The EC50 in test [13] and in [14] was > 112 µM (not active) in each case.

On to `CN1C(=O)/C(=C/c2cccn2-c2ccc3ccccc3c2)C(=O)NC1=S`, for which the EC50 is > 50 µM (not active) in the test on Streptococcus, 12.1 µM (active) in [3], 4.97 µM (active) at Streptokinase A and 5.56 µM (active) in test [9]. In addition, the AC50 in test [15] is 9.42 µM (active). The CC50 in test [16] is 14.5 µM (active).
